Experiments:
[1] = tested on: HeLa; assay: Antiproliferative activity against human HeLa cells assessed as cell growth inhibition measured after 48 hrs by MTT assay; type: functional, cell-based
[2] = tested on: MDA-MB-231; assay: Antiproliferative activity against human MDA-MB-231 cells assessed as cell growth inhibition measured after 48 hrs by MTT assay; type: functional, cell-based; conditions: MDA-MB-231, 48 h
[3] = tested on: KYSE-150 cell line; assay: Antiproliferative activity against human KYSE-150 cells assessed as cell growth inhibition measured after 48 hrs by MTT assay; type: functional, cell-based; conditions: KYSE-150, 48 h
[4] = tested on: MCF7; assay: Antiproliferative activity against human MCF7 cells assessed as cell growth inhibition measured after 48 hrs by MTT assay; type: functional, cell-based; conditions: MCF7, 48 h
[5] = biological target: Tubulin (Homo sapiens) (UniProt P68371+Q9H4B7+P0DPH7+P68366+Q13509+Q71U36+P04350+Q3ZCM7+P07437+P68363+Q9BQE3+Q6PEY2+Q13885+Q9BVA1+Q9BUF5); assay: Inhibition of tubulin polymerization (unknown origin) at 10 uM relative to control; type: protein-complex assay
[6] = tested on: HeLa; assay: Cell cycle arrest in human HeLa cells assessed as accumulation at G2/M phase at 9 uM measured after 24 hrs by propidium iodide staining based flow cytometry analysis (reference value: 13.92 %); type: functional
[7] = tested on: HeLa; assay: Cell cycle arrest in human HeLa cells assessed as accumulation at G2/M phase measured after 24 hrs by propidium iodide staining based flow cytometry analysis; type: functional
[8] = tested on: HeLa; assay: Cell cycle arrest in human HeLa cells assessed as accumulation at G2/M phase at 36 uM measured after 24 hrs by propidium iodide staining based flow cytometry analysis (reference value: 13.92 %); type: functional
[9] = tested on: HeLa; assay: Cell cycle arrest in human HeLa cells assessed as accumulation at G0/G1 phase at 18 uM measured after 24 hrs by propidium iodide staining based flow cytometry analysis (reference value: 67.86 %); type: functional
[10] = tested on: HeLa; assay: Cell cycle arrest in human HeLa cells assessed as accumulation at S phase at 36 uM measured after 24 hrs by propidium iodide staining based flow cytometry analysis (reference value: 18.92 %); type: functional
[11] = tested on: HeLa; assay: Cell cycle arrest in human HeLa cells assessed as accumulation at G0/G1 phase at 36 uM measured after 24 hrs by propidium iodide staining based flow cytometry analysis (reference value: 67.86 %); type: functional
[12] = tested on: HeLa; assay: Cell cycle arrest in human HeLa cells assessed as accumulation at S phase at 18 uM measured after 24 hrs by propidium iodide staining based flow cytometry analysis (reference value: 18.92 %); type: functional
[13] = tested on: HeLa; assay: Cell cycle arrest in human HeLa cells assessed as accumulation at G2/M phase at 18 uM measured after 24 hrs by propidium iodide staining based flow cytometry analysis (reference value: 13.92 %); type: functional
[14] = tested on: HeLa; assay: Cell cycle arrest in human HeLa cells assessed as accumulation at S phase at 9 uM measured after 24 hrs by propidium iodide staining based flow cytometry analysis (reference value: 18.92 %); type: functional
[15] = tested on: HeLa; assay: Cell cycle arrest in human HeLa cells assessed as accumulation at G0/G1 phase at 9 uM measured after 24 hrs by propidium iodide staining based flow cytometry analysis (reference value: 67.86 %); type: functional

| IC50 [1] [µM] | IC50 [2] [µM] | IC50 [4] [µM] | SMILES | IC50 [3] [µM] | further results |
| --- | --- | --- | --- | --- | --- |
| > 100 | > 100 | > 100 | COC(=O)c1ccc(-n2nc(-c3cc(OC)c(OC)c(OC)c3)c3cccnc32)cc1 | > 100 |  |
| > 100 | 84.3 | 97.6 | COc1cc(-n2nc(-c3ccc(Cl)cc3)c3cccnc32)cc(OC)c1OC | > 100 |  |
| 85 | 86.7 | 86.9 | COc1cccc(-c2nn(-c3cc(OC)c(OC)c(OC)c3)c3ncccc23)c1 | > 100 |  |
| 92.7 | 61.5 | > 100 | COc1cc(-c2nn(Cc3ccc(F)cc3)c3ncccc23)cc(OC)c1OC | > 100 |  |
| 38.9 | 79.7 | 80.1 | COc1cc(-n2nc(-c3ccc4c(c3)OCO4)c3cccnc32)cc(OC)c1OC | 58.9 |  |
| 21.9 | 51 | > 100 | COc1cc(-n2nc(-c3ccc(C(=O)NN)cc3)c3cccnc32)cc(OC)c1OC | > 100 |  |
| > 100 | > 100 | > 100 | COC(=O)c1ccc(-c2nn(-c3cc(OC)c(OC)c(OC)c3)c3ncccc23)cc1 | > 100 |  |
| > 100 | > 100 | > 100 | COc1ccc(-c2nn(-c3cc(OC)c(OC)c(OC)c3)c3ncccc23)cc1 | > 100 |  |
| 22.7 | 28.7 | 96.8 | COc1ccc(-c2nn(-c3cc(OC)c(OC)c(OC)c3)c3ncccc23)cc1OC | > 100 | inhibition [5]: 14% |
| 29.7 | > 100 | 65.2 | COc1cc(-c2nn(-c3ccc(C(=O)NN)cc3)c3ncccc23)cc(OC)c1OC | > 100 |  |
| > 100 | > 100 | > 100 | COc1ccccc1-c1nn(-c2cc(OC)c(OC)c(OC)c2)c2ncccc12 | > 100 |  |
| 72.5 | 82.5 | 45.9 | COc1cc(-n2nc(-c3ccc(C#N)cc3)c3cccnc32)cc(OC)c1OC | 85.9 |  |
| > 100 | > 100 | > 100 | COc1cc(-c2nn(Cc3ccc(C)cc3)c3ncccc23)cc(OC)c1OC | > 100 |  |
| 84.5 | > 100 | > 100 | COc1cc(-n2nc(-c3ccc([N+](=O)[O-])cc3)c3cccnc32)cc(OC)c1OC | > 100 |  |
| > 100 | > 100 | > 100 | COc1cc(-c2nn(-c3ccc(Cl)cc3)c3ncccc23)cc(OC)c1OC | > 100 |  |
| > 100 | > 100 | > 100 | COc1cc(-n2nc(-c3ccc(Cl)c(Cl)c3)c3cccnc32)cc(OC)c1OC | > 100 |  |
| 91.8 | 69.9 | > 100 | COc1ccc(F)cc1-c1nn(-c2cc(OC)c(OC)c(OC)c2)c2ncccc12 | 74.3 |  |
| > 100 | > 100 | > 100 | COc1cc(-n2nc(-c3ccc(C)cc3)c3cccnc32)cc(OC)c1OC | > 100 |  |
| 51.4 | 56.4 | 76.7 | COc1cc(-n2nc(-c3ccc(F)cc3)c3cccnc32)cc(OC)c1OC | 41.1 | inhibition [5]: 18% |
| 58.3 | 47 | 87.6 | COc1cc(F)ccc1-c1nn(-c2cc(OC)c(OC)c(OC)c2)c2ncccc12 | 87.4 | inhibition [5]: 20% |
| > 100 | > 100 | > 100 | COc1ccc(-n2nc(-c3cc(OC)c(OC)c(OC)c3)c3cccnc32)cc1OC | > 100 |  |
| 18.1 | 27 | 27.2 | COc1ccc(-c2nn(-c3cc(OC)c(OC)c(OC)c3)c3ncccc23)cc1O | 62.8 | Activity [6]: 26.93%; Activity [7]: Dose-dependent effect; Activity [8]: 48.13%; Activity [9]: 50.48%; Activity [10]: 21.25%; Activity [11]: 30.61%; inhibition [5]: 31%; Activity [12]: 14.85%; Activity [13]: 34.87%; Activity [14]: 21.18%; Activity [15]: 51.89% |
| 23.5 | 37.3 | 28.4 | COc1ccc(-c2nn(-c3cc(OC)c(OC)c(OC)c3)c3ncccc23)cc1[N+](=O)[O-] | > 100 | inhibition [5]: 16% |
| > 100 | > 100 | > 100 | COc1cccc(-c2nn(-c3cc(OC)c(OC)c(OC)c3)c3ncccc23)n1 | > 100 |  |
| 33.4 | > 100 | > 100 | COc1ccc(-c2nn(-c3cc(OC)c(OC)c(OC)c3)c3ncccc23)cc1N | 58.1 |  |
| 78.9 | 60.5 | > 100 | COc1cc(-n2nc(-c3ccccc3OC(F)(F)F)c3cccnc32)cc(OC)c1OC | > 100 |  |

| SMILES | IC50 [1] [µM] | IC50 [2] [µM] | IC50 [4] [µM] | IC50 [3] [µM] | further results |
| --- | --- | --- | --- | --- | --- |
| COc1ccc(/C=C\c2cc(OC)c(OC)c(OC)c2)cc1O [COMBRETASTATIN A4] | 0.003 | 0.017 |  | 0.6 |  |

Source: ChEMBL document CHEMBL4627287, “Synthesis and biological evaluation of novel pyrazolo[3,4-b]pyridines as cis-restricted combretastatin A-4 analogues” (Bioorg Med Chem Lett, 2020)
